This note sets out measurements from ChEMBL document CHEMBL1146135, “Benzimidazole inhibitors of hepatitis C virus NS5B polymerase: identification of 2-[(4-diarylmethoxy)phenyl]-benzimidazole” (Bioorg Med Chem Lett, 2006).

One assay concerns Huh-5-2. The assay can be described thus: Cytotoxicity against Huh5-2 cells by MTT assay. Format: functional. The note with it: Homo sapiens.
Assay [1] addresses T1, RNA-directed RNA polymerase (Hepacivirus hominis, UniProt O39930). Kind of assay: Inhibitory activity against HCV 1a NS5B RNA dependent RNA polymerase.
Assay [2] concerns the target T1, RNA-directed RNA polymerase. Kind of assay: Inhibitory activity against HCV 1b NS5B RNA dependent RNA polymerase. Also noted: species or system Hepatitis C virus subtype 1b.
A further assay deals with DNA polymerase beta (Homo sapiens, UniProt P06746). Kind of assay: Inhibitory activity against DNA polymerase beta.
The target of assay [3] is T2, DNA polymerase alpha catalytic subunit (Homo sapiens, UniProt P09884).
T2 sequence (P09884 whole entry): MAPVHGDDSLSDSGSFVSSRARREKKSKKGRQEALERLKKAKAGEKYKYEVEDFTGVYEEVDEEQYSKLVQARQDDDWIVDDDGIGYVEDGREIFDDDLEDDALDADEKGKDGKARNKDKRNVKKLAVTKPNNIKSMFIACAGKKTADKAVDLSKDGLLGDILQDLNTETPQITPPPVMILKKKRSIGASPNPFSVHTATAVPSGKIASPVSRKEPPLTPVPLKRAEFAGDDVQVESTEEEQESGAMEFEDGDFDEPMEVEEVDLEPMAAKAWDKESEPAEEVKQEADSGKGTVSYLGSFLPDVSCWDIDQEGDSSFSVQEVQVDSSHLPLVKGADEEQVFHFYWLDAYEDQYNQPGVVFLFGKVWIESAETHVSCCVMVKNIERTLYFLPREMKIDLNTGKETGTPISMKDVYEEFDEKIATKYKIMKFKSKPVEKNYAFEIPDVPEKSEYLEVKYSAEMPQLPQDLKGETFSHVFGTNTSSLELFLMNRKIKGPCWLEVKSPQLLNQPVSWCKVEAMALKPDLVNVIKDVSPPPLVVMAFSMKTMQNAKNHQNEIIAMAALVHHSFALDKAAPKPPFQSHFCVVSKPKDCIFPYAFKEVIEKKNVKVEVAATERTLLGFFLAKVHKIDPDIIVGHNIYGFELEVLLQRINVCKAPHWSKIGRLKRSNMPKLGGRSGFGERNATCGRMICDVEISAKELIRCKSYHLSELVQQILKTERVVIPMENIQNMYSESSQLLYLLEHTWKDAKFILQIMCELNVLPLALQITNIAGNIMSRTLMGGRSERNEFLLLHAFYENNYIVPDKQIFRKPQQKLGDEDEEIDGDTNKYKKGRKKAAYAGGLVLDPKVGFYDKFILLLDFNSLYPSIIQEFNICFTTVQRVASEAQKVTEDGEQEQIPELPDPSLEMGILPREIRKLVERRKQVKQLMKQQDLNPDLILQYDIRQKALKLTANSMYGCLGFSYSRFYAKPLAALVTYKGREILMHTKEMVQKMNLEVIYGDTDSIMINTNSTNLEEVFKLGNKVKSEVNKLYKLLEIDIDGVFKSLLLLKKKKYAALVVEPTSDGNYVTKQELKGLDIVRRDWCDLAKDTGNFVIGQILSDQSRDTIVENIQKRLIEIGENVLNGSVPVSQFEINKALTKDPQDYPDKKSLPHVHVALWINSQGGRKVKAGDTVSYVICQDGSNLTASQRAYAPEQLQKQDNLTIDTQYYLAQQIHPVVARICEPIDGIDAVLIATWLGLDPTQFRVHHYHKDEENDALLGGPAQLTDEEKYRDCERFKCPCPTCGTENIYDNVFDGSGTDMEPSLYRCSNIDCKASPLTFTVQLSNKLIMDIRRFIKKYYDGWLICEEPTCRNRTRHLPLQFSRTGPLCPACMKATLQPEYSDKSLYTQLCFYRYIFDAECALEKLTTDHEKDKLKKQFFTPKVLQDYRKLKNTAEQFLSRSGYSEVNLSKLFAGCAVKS
Kind of assay: Inhibitory activity against DNA polymerase alpha.

For assay [4], the target named is RNA-directed RNA polymerase (Hepacivirus hominis) (UniProt O39930). Kind of assay: Inhibitory activity against HCV 1b NS5B RNA dependent RNA polymerase at 10 uM. The note with it: Hepatitis C virus subtype 1b.

A value given as a limit tells only on which side of the number the result lay.

T1 sequence (O39930 whole entry): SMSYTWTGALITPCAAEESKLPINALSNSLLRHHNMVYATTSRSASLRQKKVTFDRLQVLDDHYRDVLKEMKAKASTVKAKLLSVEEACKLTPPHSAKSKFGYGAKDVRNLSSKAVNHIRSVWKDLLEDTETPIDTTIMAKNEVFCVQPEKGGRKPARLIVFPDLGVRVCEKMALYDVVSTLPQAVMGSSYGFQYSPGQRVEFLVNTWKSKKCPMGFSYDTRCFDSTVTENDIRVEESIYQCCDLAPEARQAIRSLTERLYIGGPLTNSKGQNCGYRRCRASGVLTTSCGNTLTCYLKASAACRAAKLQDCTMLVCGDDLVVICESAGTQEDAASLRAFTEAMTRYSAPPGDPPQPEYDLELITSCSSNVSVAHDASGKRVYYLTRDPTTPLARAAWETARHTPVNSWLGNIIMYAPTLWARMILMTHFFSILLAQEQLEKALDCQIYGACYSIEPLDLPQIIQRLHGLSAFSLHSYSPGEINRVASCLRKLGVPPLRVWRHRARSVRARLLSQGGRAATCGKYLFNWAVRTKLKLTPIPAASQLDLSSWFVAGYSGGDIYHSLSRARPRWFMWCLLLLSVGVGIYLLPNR
Chain of RNA-directed RNA polymerase (Hepacivirus hominis) (O39930 1-591): as the sequence (O39930 whole entry) above

Regarding `O=C(O)c1ccc2c(c1)nc(-c1ccc(OC(c3cccnc3)c3cccnc3)cc1F)n2C1CCCCC1`, in the assay on Huh-5-2, the CC50 is over 50 µM. Further, the IC50 in assay [1] was 2.2 µM; in assay [2], 1.1 µM; on DNA polymerase beta, over 10 µM; in assay [3], over 10 µM.
`O=C(O)c1ccc2c(c1)nc(-c1ccc(OCc3ccc(Cl)c(Cl)c3)cc1)n2C1CCCC1`: 1.3 µM corresponded to half-maximal inhibition in assay [2] (IC50).
The same measure, in the same setting: for `O=C(O)c1ccc2c(c1)nc(-c1ccc(OCc3ccccc3Cl)cc1)n2C1CCCC1` the value was 2.3 µM.
Still for that read-out and setting: for `O=C(O)c1ccc2c(c1)nc(-c1ccc(OCc3ccccc3)cc1)n2C1CCCCC1` the value was 1.4 µM.
Turning to `NC(=O)c1ccc2c(c1)nc(-c1ccc(OCc3ccccc3)cc1)n2C1CCCC1`, in assay [4], the inhibition was 47%.
`O=C(O)c1ccc2c(c1)nc(-c1ccc(OCCCCCc3ccccc3)cc1)n2C1CCCCC1` registered an IC50 in assay [2] of 1 µM.
On the same count and under the same terms, for `O=C(O)c1ccc2c(c1)nc(-c1ccc(OCc3cccc(Cl)c3)cc1)n2C1CCCC1` the value was 1.6 µM; for `O=C(O)c1ccc2c(c1)nc(-c1ccc(OCc3ccc(Cl)cc3)cc1)n2C1CCCC1`, 1.2 µM.
In turn, `O=C(O)c1ccc2c(c1)nc(-c1ccc(OC(c3ccccc3)c3ccccc3)cc1F)n2C1CCCCC1` gave a CC50 with Huh-5-2 of 27.3 µM. Also, the IC50 in assay [1] is 0.8 µM; in assay [2] it was 0.096 µM; against DNA polymerase beta it was over 10 µM; in assay [3] it was over 10 µM.
`O=C(O)c1ccc2c(c1)nc(-c1ccc(OC(c3ccc(F)cc3)c3ccc(F)cc3)cc1F)n2C1CCCCC1` gave a CC50 with Huh-5-2 of 27.2 µM. Further, the IC50 in assay [1] is 0.84 µM; in assay [2] it was 0.3 µM; at DNA polymerase beta it was over 10 µM; in assay [3], over 10 µM.
With `O=C(O)c1ccc2c(c1)nc(-c1ccc(OC(c3ccc(Cl)cc3)c3ccc(Cl)cc3)cc1)n2C1CCCCC1`, it took 23.7 µM to reach half-maximal cytotoxicity in the assay on Huh-5-2 (CC50). Further, the IC50 in assay [1] is 2.4 µM; in assay [2], 0.93 µM; against DNA polymerase beta, over 10 µM; in assay [3], over 10 µM.
`O=C(O)c1ccc2c(c1)nc(-c1ccc(OC(c3ccccc3)c3cccnc3)cc1F)n2C1CCCCC1` (stereo not drawn) had a CC50 with Huh-5-2 of over 50 µM. Besides, the IC50 in assay [1] is 0.8 µM; in assay [2] it was 0.27 µM; on DNA polymerase beta, over 10 µM; in assay [3] it was over 10 µM.
In turn, `O=C(O)c1ccc2c(c1)nc(-c1ccc(OCc3ccccc3-c3ccccc3)cc1)n2C1CCCCC1` registered an IC50 in assay [2] of 0.3 µM.
Still for that read-out and setting: for `O=C(O)c1ccc(COc2ccc(-c3nc4cc(C(=O)O)ccc4n3C3CCCC3)cc2)cc1` the value was 6.7 µM; for `CC(C)(C)c1ccc(COc2ccc(-c3nc4cc(C(=O)O)ccc4n3C3CCCC3)cc2)cc1`, 1.5 µM.
In the assay with Huh-5-2, `O=C(O)c1ccc2c(c1)nc(-c1ccc(OC(c3ccccc3)c3ccccc3)cc1)n2C1CCCCC1` returned a CC50 of 31.9 µM. Besides, the IC50 in assay [1] was 1.3 µM; in assay [2], 0.59 µM; against DNA polymerase beta it was over 10 µM; in assay [3], over 10 µM.
Compound `CN(C)C(=O)c1ccc(C(Oc2ccc(-c3nc4cc(C(=O)O)ccc4n3C3CCCCC3)c(F)c2)c2ccc(C(=O)N(C)C)cc2)cc1` showed a CC50 with Huh-5-2 of over 50 µM. Also, the IC50 is 0.95 µM in assay [1], 0.64 µM in assay [2], over 10 µM on DNA polymerase beta and over 10 µM in assay [3].
In turn, `O=C(O)c1ccc2c(c1)nc(-c1ccc(OCCOc3ccccc3)cc1)n2C1CCCCC1` returned an IC50 in assay [2] of 1.2 µM.
Same read-out and setting: for `O=C(O)c1ccc2c(c1)nc(-c1ccc(OCc3ccc(C(F)(F)F)cc3)cc1)n2C1CCCC1` the value was 1.8 µM; for `O=C(O)c1ccc2c(c1)nc(-c1ccc(OCc3ccncc3)cc1)n2C1CCCC1`, 4.2 µM; for `O=C(O)c1ccc2c(c1)nc(-c1ccc(OCC(c3ccccc3)c3ccccc3)cc1)n2C1CCCCC1`, 0.98 µM.
For the compound `O=C(O)c1ccc2c(c1)nc(-c1ccc(OC(c3cccc(F)c3)c3cccc(F)c3)cc1)n2C1CCCCC1`, the CC50 in the assay on Huh-5-2 is 24.4 µM. The IC50 in assay [1] was 1.9 µM; in assay [2] it was 0.76 µM; on DNA polymerase beta, over 10 µM; in assay [3] it was over 10 µM.
`O=C(O)c1ccc2c(c1)nc(-c1ccc(OCc3cccc(-c4ccccc4)c3)cc1)n2C1CCCCC1`: half-maximal inhibition in assay [2] (IC50) was put at 0.39 µM.
`Cc1ccc(C(Oc2ccc(-c3nc4cc(C(=O)O)ccc4n3C3CCCCC3)cc2)c2ccc(C)cc2)cc1` came in with a CC50 in the assay with Huh-5-2 of 23.5 µM. Also, the IC50 in assay [1] was 3.1 µM; in assay [2], 1.2 µM; on DNA polymerase beta it was over 10 µM; in assay [3], over 10 µM.
Take `O=C(O)c1ccc2c(c1)nc(-c1ccc(OCCc3ccccc3-c3ccccc3)cc1)n2C1CCCCC1`: 0.34 µM corresponded to half-maximal inhibition in assay [2] (IC50).
Same read-out and setting: for `O=C(O)c1ccc2c(c1)nc(-c1ccc(OCc3ccccc3)cc1)n2C1CCCCCC1` the value was 1.8 µM.
In assay [2], `COc1ccc(COc2ccc(-c3nc4cc(C(=O)O)ccc4n3C3CCCC3)cc2)cc1` gave an IC50 of 2.1 µM.
Still for that read-out and setting: for `Cc1ccc(COc2ccc(-c3nc4cc(C(=O)O)ccc4n3C3CCCC3)cc2)cc1` the value was 1.6 µM; for `O=C(O)c1ccc2c(c1)nc(-c1ccc(OCCCc3ccccc3)cc1)n2C1CCCCC1`, 0.8 µM; for `O=C(O)c1ccc2c(c1)nc(-c1ccc(Oc3ccccc3-c3ccccc3)cc1)n2C1CCCCC1`, 0.58 µM.
Same read-out and setting: for `O=C(O)c1ccc2c(c1)nc(-c1ccc(OCc3ccccc3)cc1)n2C1CCCC1` the value was 3.2 µM.
Same read-out and setting: for `O=C(O)c1ccc2c(c1)nc(-c1ccc(OCc3cc(Cl)cc(Cl)c3)cc1)n2C1CCCC1` the value was 1.7 µM.
`O=C(O)c1ccc2c(c1)nc(-c1ccc(OC(c3ccc(F)cc3)c3ccc(F)cc3)cc1)n2C1CCCCC1` showed a CC50 with Huh-5-2 of 27.7 µM. Moreover, the IC50 in assay [1] was 1.7 µM; in assay [2], 0.8 µM; against DNA polymerase beta it was over 10 µM; in assay [3], over 10 µM.
